{"source": "ChEMBL document CHEMBL2074570", "about": "“The farnesyl protein transferase inhibitor SCH66336 is a potent inhibitor of MDR1 product P-glycoprotein” (Cancer Res, 2001)", "molecular_target": "ATP-dependent translocase ABCB1 (Homo sapiens, UniProt P08183)", "sequence (P08183 whole entry)": "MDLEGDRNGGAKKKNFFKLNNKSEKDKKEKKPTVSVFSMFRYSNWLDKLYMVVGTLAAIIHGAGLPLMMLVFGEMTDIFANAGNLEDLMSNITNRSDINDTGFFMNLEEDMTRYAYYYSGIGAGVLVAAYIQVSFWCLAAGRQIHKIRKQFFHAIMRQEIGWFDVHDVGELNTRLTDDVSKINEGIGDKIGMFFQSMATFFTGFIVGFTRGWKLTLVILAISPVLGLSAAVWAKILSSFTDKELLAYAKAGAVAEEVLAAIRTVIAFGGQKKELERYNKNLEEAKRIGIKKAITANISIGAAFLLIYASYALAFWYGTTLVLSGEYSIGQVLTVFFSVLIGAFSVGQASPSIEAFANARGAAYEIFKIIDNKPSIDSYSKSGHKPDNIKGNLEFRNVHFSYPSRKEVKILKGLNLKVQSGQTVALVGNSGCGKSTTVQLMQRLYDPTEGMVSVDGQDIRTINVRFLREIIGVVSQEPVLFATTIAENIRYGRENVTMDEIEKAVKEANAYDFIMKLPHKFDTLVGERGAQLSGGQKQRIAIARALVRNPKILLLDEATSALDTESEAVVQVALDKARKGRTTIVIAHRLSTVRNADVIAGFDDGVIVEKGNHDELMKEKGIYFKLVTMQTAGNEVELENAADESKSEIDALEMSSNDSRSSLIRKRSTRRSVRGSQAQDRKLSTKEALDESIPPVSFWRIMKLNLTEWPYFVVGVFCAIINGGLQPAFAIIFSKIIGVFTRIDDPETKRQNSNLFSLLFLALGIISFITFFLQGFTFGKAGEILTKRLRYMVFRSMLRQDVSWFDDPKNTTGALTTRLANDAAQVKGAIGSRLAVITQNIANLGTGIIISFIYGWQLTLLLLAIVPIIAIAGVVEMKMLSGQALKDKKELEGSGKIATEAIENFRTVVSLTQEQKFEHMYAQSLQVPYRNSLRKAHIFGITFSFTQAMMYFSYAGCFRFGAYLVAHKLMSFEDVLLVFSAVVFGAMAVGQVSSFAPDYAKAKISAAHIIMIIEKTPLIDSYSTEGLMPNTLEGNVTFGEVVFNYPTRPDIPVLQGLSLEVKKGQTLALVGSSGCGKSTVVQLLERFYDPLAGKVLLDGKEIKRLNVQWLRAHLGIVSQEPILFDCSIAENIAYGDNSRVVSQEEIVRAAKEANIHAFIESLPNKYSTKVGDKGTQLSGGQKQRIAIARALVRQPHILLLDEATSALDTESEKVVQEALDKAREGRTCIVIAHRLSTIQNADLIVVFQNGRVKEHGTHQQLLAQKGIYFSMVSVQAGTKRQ", "assay": "TP_TRANSPORTER: inhibition of DNR efflux (DNR: ? uM) in MDR1-expressing NIH3T3 cells", "format": "functional, cell-based", "data": [{"molecule": "NC(=O)N1CCC(CC(=O)N2CCC([C@H]3c4ncc(Br)cc4CCc4cc(Cl)cc(Br)c43)CC2)CC1", "note": "[LONAFARNIB]", "values": [{"measurement": "IC50", "result": 2700, "unit": "nM"}]}]}
